Test results published in patent publication US10428013B2, “Amide compound, preparation method and uses thereof” (Shanghai Institute of Phamaceutical Industry, priority 2011, dated 2019).

Legend:
[1] = system: Hyperlipemia Model of SD Rat; experiment: Screening in the hyperlipemia model of SD rat (fat emulsion by gavage; serum lipids); format: in vivo; conditions: hyperlipemia SD rats, dosed 21 days, X ± SD
Description: Materials and Methods for Screening with the Compounds Prepared in Experiment 1 to 21 in the Hyperlipemia Model of SD Rat
SD rats, male, 150-180 g, supplied by Shanghai Slaccas Laboratory Animal Company Limited.
Preparation of fat emulsion: 500 g lard oil was weighed and placed into a vessel, heated for melting, and upon heating up to the temperature of 100° C., 200 g cholesterol was added and fully dissolved, then 20 g propylthiouracil was added. After full stirring and dissolving, 500 ml Tween 80 was added to give an oil phase. Meanwhile, 600 ml distilled water and 400 ml 1,2-propylene glycol were heated to 60° C. in water bath, and then 40 g sodium deoxycholate was added with stirring, until full dissolution, to give an aqueous phase. The aqueous phase was added into the oil phase and fully and uniformly mixed, to prepare the fat emulsion.
Formulation of the solution for the compounds: an appropriate amount of compounds was triturated with appropriate amount of Tween 80 for homogeneous dispersion, and then sufficient CMC-Na solution was added and fully triturated, suspended to give the solution for the compounds.
The animals were fed for acclimation for 3 days, with 8 animals as blank control (Control) according to weight, and the rest was subject to intragastric administration of fat emulsion at 1 ml/100 g weight at A.M. 9:00-11:00 daily for continuous 2 weeks; the animals were fasted for 12 hours, and had 1 ml blood sampled at orbital cavity, which was measured with the Hitachi Automatic Biochemical Analyzer 7080 for serum cholesterol (CHO), triglyceride (TO), low-density lipoprotein (LDL-C) and high-density lipoprotein (HDL-C), with the animals having CHO of 4-7 mmol/L for experiment.
The animals dosed with fat emulsion for 2 weeks were divided into model group (Model), simvastatin group (Sim, 10 mg/kg) and compound group (40 mg/kg) according to weight, and continued to receive intragastric administration with fat emulsion; at the same time, the dosed group was administered with respective amount of drug, and the model group was administered with equal volume of solvent. Fat emulsion was dosed by gavage at A.M., and drug was dosed at P.M. The animals were weighed at Monday, and were observed. The animals were dosed for continuous 21 days, and fasted for 12 hours, with 1 ml blood sampling at orbital cavity. The liver was exposed and observed for pathologic condition; after slicing and weighing, it was fixed into the 4% formaldehyde solution for pathologic examination.
The Hitachi Automatic Biochemical Analyzer 7080 was used to measure serum cholesterol (CHO), triglyceride (TG), low-density lipoprotein (LDL-C) and high-density lipoprotein (HDL-C).
Laboratory data were expressed as X±SD (Standard Deviation), and comparison between groups was carried out by t-testing.

[2] = system: Cholelithiasis Model of Golden Hamster; experiment: Screening in the cholelithiasis model of golden hamster (biochemical measurement of bile); format: in vivo, golden hamsters; conditions: dosed 45 days, X ± SD
Description: Screening with the Compounds Prepared in Experiment 1 to 21 in the Cholelithiasis Model of Golden Hamster
68 male golden hamsters, 50-60 g, supplied by Shanghai Slaccas Laboratory Animal Company Limited.
The animals were fed for acclimation for 3 days, with 8 animals as blank control (Control) according to weight. The control was dosed with normal rat feedstuff, and the rest was dosed with feedstuff leading to cholelithiasis (sucrose 32.1%, cheese 64.2%, cholesterol 0.2%, salt 3%, vitamin B1 […], concentrated fish liver oil 0.4%). The animals were fed for acclimation for another 7 days, and divided into model group (Model), simvastatin group (Sim, 10 mg/kg), Ursodesoxycholic acid group (UDCA, 40 mg/kg), and compound group, n=6/group.
[…] 2:00-3:00 daily. The animals were weighed at Monday, and observed for hair color, stool, and variation of activation level.
The animals were dosed for continuous 45 days and then fasted for 12 hours; were anesthetized with 30 mg/kg sodium secobarbital via intraperitoneal injection; had 1 ml blood sampled via abdominal aorta; had gallbladder exposed, with an orifice on the gallbladder being clamped by the ophthalmological pliers and bile in the gallbladder being sucked with 1 ml syringe.
The Hitachi Automatic Biochemical Analyzer 7080 was used to measure cholesterol (CHO), total total bilirubin (TBIL), total bile acid (TBA) and total protein (TP) in bile.
Laboratory data was expressed as X±SD, and comparison of measurement data between groups was carried out by t-testing, with non-parametric testing for enumeration data.

[3] = system: Mice; experiment: Testing for acute toxicity in mice; format: in vivo; conditions: orally by gavage, 5 g/kg, observation 14 days
Description: Testing for Acute Toxicity in Mice
The compounds was dissolved into an appropriate amount of Tween-80, and suspended and dispersed uniformly into a given amount of CMC-Na solution, which was administered orally and by gavage at a dose of 5 g/kg, with no toxicity associated with administration being observed, and no death of animals occurred during observation of continuous 14 days. From the results, the sample Compound 01, Compound 02, Compound 03, Compound 04, Compound 05, Compound 06, Compound 07, Compound 08, Compound 09, Compound 10, Compound 11, Compound 12, Compound 13, Compound 14, Compound 15, Compound 16, Compound 17, Compound 18, Compound 19, Compound 20 and Compound 21 were safe.

SMILES | CHO1 Concentration (serum cholesterol) ([1]; 40 mg/kg) | HDL-C Concentration (serum high-density lipoprotein) ([1]; 40 mg/kg) | LDL-C Concentration (serum low-density lipoprotein) ([1]; 40 mg/kg) | TG Concentration (serum triglyceride) ([1]; 40 mg/kg) | Cholesterol (CHO) in bile ([2]; 20 mg/kg) | Total bile acid (TBA) in bile ([2]; 20 mg/kg) | Total protein (TP) in bile ([2]; 20 mg/kg) | Total total bilirubin (TBIL) in bile ([2]; 20 mg/kg) | Acute toxicity, overall result [3] | CHO1 Concentration (serum cholesterol) ([1]; 10 mg/kg) | HDL-C Concentration (serum high-density lipoprotein) ([1]; 10 mg/kg) | LDL-C Concentration (serum low-density lipoprotein) ([1]; 10 mg/kg) | TG Concentration (serum triglyceride) ([1]; 10 mg/kg) | Cholesterol (CHO) in bile ([2]; 10 mg/kg) | Total bile acid (TBA) in bile ([2]; 10 mg/kg) | Total protein (TP) in bile ([2]; 10 mg/kg) | Total total bilirubin (TBIL) in bile ([2]; 10 mg/kg)
CC(Oc1ccc(Cl)cc1)(C(=O)NCC(=O)c1ccc(O)cc1)C1CC1 (stereo not drawn) [Compound 20] | 19.88 ± 0.84 mmol/L | 2.63 ± 0.57 mmol/L | 18.48 ± 0.43 mmol/L | 1.72 ± 0.26 mmol/L | 0.92 ± 0.66 mmol/L | 16.80 ± 9.62 mmol/L | 32.94 ± 19.18 g/L | 75.92 ± .072 µmol/L | – | – | – | – | – | – | – | – | –
Cc1ccc(C)c(OCCCC(C)(C)C(=O)NCC(=O)c2ccc(CO)cc2)c1 [Compound 21] | 14.42 ± 2.75 mmol/L | 1.69 ± 0.26 mmol/L | 12.15 ± 3.12 mmol/L | 2.00 ± 0.52 mmol/L | – | – | – | – | safe | – | – | – | – | – | – | – | –
CCC(C)(C)C(=O)O[C@H]1C[C@@H](C)C=C2C=C[C@H](C)[C@H](CC[C@@H]3C[C@@H](O)CC(=O)O3)[C@H]21 [Simvastatin, reference compound] | – | – | – | – | – | – | – | – | – | 12.52 ± 1.34 mmol/L | 1.52 ± 0.32 mmol/L | 11.92 ± 1.44 mmol/L | 1.41 ± 0.16 mmol/L | 1.07 ± 0.63 mmol/L | 7.68 ± 3.31 mmol/L | 35.52 ± 18.04 g/L | 79.2 ± 34.2 µmol/L
